Target: T1, CB-1 receptor (Rattus norvegicus, UniProt P20272)
T1 construct: tissue Pel Freeze Biologicals, Rogers, Ark; host or cells: rat brain membrane homogenate
Assay: CB-1 receptor binding assay ([3H]SR141716A displacement)
Conditions: inhibition of [3H] SR141716A binding, rat brain tissue, 20° C. for 60 minutes
Method: The following assays were designed to detect compounds that inhibit the binding of [3H] SR141716A (selective CB-1 radiolabeled ligand) and [3H] 5-(1,1-dimethyl-heptyl)-2-[5-hydroxy-2-(3-hydroxy-propyl)-cyclohexyl]-phenol (CB-1/CB-2 radiolabeled ligand) to their respective receptors.
PelFreeze brains (available from Pel Freeze Biologicals, Rogers, Ark.) were cut up and placed in tissue preparation buffer (5 mM Tris HCl, pH=7.4 and 2 mM EDTA), polytroned at high speed and kept on ice for 15 minutes. The homogenate was then spun at 1,000×g for 5 minutes at 4° C. The supernatant was recovered and centrifuged at 100,000×G for 1 hour at 4° C. The pellet was then re-suspended in 25 ml of TME ([…] Tris, pH=7.4, 5 mM MgCl2, and 1 mM EDTA) per brain used. A protein assay was performed and 200 μl of tissue totaling 20 μg was added to the assay.
The test compounds were diluted in drug buffer (0.5% BSA, 10% DMSO and TME) and then 25 μl were added to a deep well polypropylene plate. [3H] SR141716A was diluted in a ligand buffer (0.5% BSA plus TME) and 25 μl were added to the plate. A BCA protein assay was used to determine the appropriate tissue concentration and then 200 μl of rat brain tissue at the appropriate concentration was added to the plate. […] In the morning the filters were counted on a Wallac Betaplate™ counter (available from PerkinElmer Life Sciences™, Boston, Mass.).

T1 sequence (P20272 whole entry): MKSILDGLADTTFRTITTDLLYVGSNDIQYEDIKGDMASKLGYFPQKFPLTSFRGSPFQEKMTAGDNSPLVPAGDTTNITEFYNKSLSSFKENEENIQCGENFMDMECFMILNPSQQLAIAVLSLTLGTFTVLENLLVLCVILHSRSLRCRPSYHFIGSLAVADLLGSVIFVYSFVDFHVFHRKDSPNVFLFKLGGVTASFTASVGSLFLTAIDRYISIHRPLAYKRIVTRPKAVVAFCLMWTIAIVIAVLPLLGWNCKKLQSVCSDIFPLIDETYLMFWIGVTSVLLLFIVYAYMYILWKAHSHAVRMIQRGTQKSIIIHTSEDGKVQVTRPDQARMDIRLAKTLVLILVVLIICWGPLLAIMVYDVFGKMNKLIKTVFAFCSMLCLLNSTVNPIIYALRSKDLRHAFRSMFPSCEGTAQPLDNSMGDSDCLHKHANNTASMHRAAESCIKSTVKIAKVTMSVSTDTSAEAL

Cc1c(-c2ncn(C)c2-c2ccccc2)nn(-c2ccccc2Cl)c1-c1ccc(Cl)cc1 [Example 1B-13, 5-(4-Chloro-phenyl)-1-(2-chloro-phenyl)-4-methyl-3-(1-methyl-5-phenyl-1H-imidazol-4-yl)-1H-pyrazole]
binding affinity: 371 nM
